Reference: US7157453B2, “Urea substituted imidazoquinolines” (3M Innovation Properties Company, priority 1999, dated 2007)
Counter-ions that a name gives are not always drawn.

Legend:
interferon (α) = assay: Cytokine Induction in Human Cells: interferon (α) by ELISA; assay type: cell-based; conditions: PBMC; human PBMCs, incubated 18 to 24 hours, lowest concentration found to induce interferon
Excerpt: (§1) An in vitro human blood cell system was used to assess cytokine induction by compounds of the invention. Activity is based on the measurement of interferon and tumor necrosis factor (α) (IFN and TNF, respectively) secreted into culture media as described by Testerman et. al. In “Cytokine Induction by the Immunomodulators Imiquimod and S-27609”, Journal of Leukocyte Biology, 58, 365–372 (September, 1995).
(§2) Whole blood is collected by venipuncture into EDTA vacutainer tubes from healthy human donors. Peripheral blood mononuclear cells (PBMCs) are separated from whole blood by density gradient centrifugation using Histopaque®-1077 (Sigma Chemicals, St. Louis, Mo.). The PBMCs are suspended at 3–4×10^6 cells/mL in RPMI 1640 medium containing 10% fetal bovine serum, 2 mM L-glutamine and 1% penicillin/streptomycin solution (RPMI complete). The PBMC suspension is added to 48 well flat bottom sterile tissue culture plates (Costar, Cambridge, Mass. or Becton Dickinson Labware, Lincoln Park, N.J.) containing an equal volume of RPMI complete media containing test compound.
(§3) The compounds are solubilized in dimethyl sulfoxide (DMSO). The DMSO concentration should not exceed a final concentration of 1% for addition to the culture wells.
(§4) The solution of test compound is added at 60 μM to the first well containing RPMI complete and serial (three fold or ten fold) dilutions are made. The PBMC suspension is then added to the wells in an equal volume, bringing the test compound concentrations to the desired range. The final concentration of PBMC suspension is 1.5–2×10^6 cells/mL. The plates are covered with sterile plastic lids, mixed gently and then incubated for 18 to 24 hours at 37° C. in a 5% carbon dioxide atmosphere.
(§5) Following incubation the plates are centrifuged for 5–10 minutes at 1000 rpm (˜200×g) at 4° C. The cell culture supernatant is removed with a sterile polypropylene pipet and transferred to sterile polypropylene tubes. Samples are maintained at −30 to −70° C. until analysis. The samples are analyzed for interferon (α) and tumor necrosis factor (α) by ELISA
Interferon (α) concentration is determined by ELISA using a Human Multi-Species kit from PBL Biomedical Laboratories, New Brunswick, N.J.
(§6) The table below lists the lowest concentration found to induce interferon and the lowest concentration found to induce tumor necrosis factor for each compound.

[1] = system: tumor necrosis factor (α); assay: Cytokine Induction in Human Cells: tumor necrosis factor (α) by ELISA; assay type: cell-based; conditions: PBMC; human PBMCs, incubated 18 to 24 hours, lowest concentration found to induce tumor necrosis factor
Excerpt: as §1, §2, §3, §4, §5
Tumor necrosis factor (α) (TNF) concentration is determined using ELISA kits available from Genzyme, Cambridge, Mass.; R&D Systems, Minneapolis, Minn.; or Pharmingen, San Diego, Calif.
as §6

| Compound | minimal effective concentration (interferon (α)) [µM] | minimal effective concentration [1] [µM] |
| --- | --- | --- |
| Cc1ccccc1NC(=O)NCCCCn1cnc2c(N)nc3ccccc3c21 [Example 48] | 0.37 | 3.33 |
| Nc1nc2ccccc2c2c1ncn2CCCCNC(=O)NC1CCCCC1 [Example 39] | 1.11 | 10 |
| CCCCNC(=O)NCCCCn1cnc2c(N)nc3ccccc3c21 [Example 52] | 1.11 | 10 |
| COCCc1nc2c(N)nc3ccccc3c2n1CCCCNC(=S)Nc1ccc(N(C)C)c2ccccc12 [Example 126] | 0.0001 | 1 |
| COCCc1nc2c(N)nc3ccccc3c2n1CCCCNC(=O)Nc1ccc([N+](=O)[O-])cc1 [Example 115] | 0.0001 | 1 |
| COc1ccc(NC(=O)NCCCCn2cnc3c(N)nc4ccccc4c32)cc1 [Example 37] | 1.11 | 10 |
| Nc1nc2ccccc2c2c1ncn2CCCCNC(=O)Nc1ccccc1-c1ccccc1 [Example 45] | 3.33 | > 30 |
| N#Cc1cccc(NC(=O)NCCCCn2cnc3c(N)nc4ccccc4c32)c1 [Example 28] | 1.11 | 3.33 |
| COCCc1nc2c(N)nc3ccccc3c2n1CCCCNC(=O)OCc1ccccc1 [Example 142, N-{4-[4-Amino-2-(2-methoxyethyl)-1H-imidazo[4,5-c]quinolin-1-yl]butyl}carbamate Trifluoroacetate] | 0.0001 | 0.1 |
| CC(=O)c1ccc(NC(=O)NCCCCn2cnc3c(N)nc4ccccc4c32)cc1 [Example 51] | 30 | 30 |
| CCCCc1nc2c(N)nc3c(c2n1CCCCNC(=O)NC12CC4CC(CC(C4)C1)C2)CCCC3 [Example 132] | 0.01 | 1 |
| CCCCc1nc2c(N)nc3c(c2n1CCCCNC(=O)NCc1ccccc1)CCCC3 [Example 133] | 0.1 | 10 |
| CCCCc1nc2c(N)nc3ccccc3c2n1CCCCNC(=O)N[C@@H]1C[C@H]1c1ccccc1 [Example 88] | 0.1 | 1 |
| Nc1nc2ccccc2c2c1ncn2CCCCNC(=O)Nc1ccccc1C(F)(F)F [Example 46] | 1.11 | 3.33 |
| CCCCc1nc2c(N)nc3ccccc3c2n1CCNC(=O)NCCC [Example 56] | 1 | 1 |
| CCCCCCNC(=O)NCCCCn1cnc2c(N)nc3ccccc3c21 [Example 25] | 3.33 | > 30 |
| CCCCc1nc2c(N)nc3ccccc3c2n1CCCCNC(=O)N[C@H](C)c1ccccc1 [Example 81] | 0.01 | 1 |
| Nc1nc2ccccc2c2c1ncn2CCCCNC(=O)NCc1ccccc1 [Example 35] | 1.11 | 10 |
| Nc1nc2ccccc2c2c1ncn2CCCCNC(=O)NCCc1ccccc1 [Example 36] | 1.11 | 10 |
| CCOc1ccccc1NC(=O)NCCCCn1cnc2c(N)nc3ccccc3c21 [Example 44] | 1.11 | 10 |
| Nc1nc2ccccc2c2c1ncn2CCCCNC(=O)Nc1ccc([N+](=O)[O-])cc1 [Example 17] | > 30 | 30 |
| CCCCc1ccc(NC(=O)NCCCCn2cnc3c(N)nc4ccccc4c32)cc1 [Example 34] | > 30 | > 30 |
| CCCCc1nc2c(N)nc3ccccc3c2n1CCCCNC(=O)Nc1ccccc1OC [Example 85] | 0.001 | 0.1 |

| Compound | minimal effective concentration (interferon (α)) [µM] | minimal effective concentration [1] [µM] |
| --- | --- | --- |
| COCCc1nc2c(N)nc3ccccc3c2n1CCCCNC(=O)Nc1ccc(Cl)cc1 [Example 113] | 0.0001 | 1 |
| Nc1nc2ccccc2c2c1ncn2CCCCNC(=O)Nc1cc(C(F)(F)F)ccc1Cl [Example 31] | > 30 | 10 |
| COCCc1nc2c(N)nc3ccccc3c2n1CCCCNC(=O)N(C)c1ccccc1 [Example 120] | 0.0001 | 0.01 |
| COCCc1nc2c(N)nc3ccccc3c2n1CCCCNC(=O)NC(=O)c1ccccc1 [Example 141, N^1-{4-[4-Amino-2-(2-methoxyethyl)-1H-imidazo[4,5-c]quinolin-1-yl]butyl}-N^3-benzoylurea Trifluoroacetate] | > 10 | 10 |
| COCCc1nc2c(N)nc3ccccc3c2n1CCCCNC(=O)Nc1ccc(C(F)(F)F)cc1 [Example 117] | 10 | 10 |
| CCCCc1nc2c(N)nc3ccccc3c2n1CCNC(=O)NS(=O)(=O)c1ccc(F)cc1 [Example 139] | > 10 | > 10 |
| CCCNC(=O)NCCn1c(COCC)nc2c(N)nc3ccccc3c21 [Example 67] | 1 | 10 |
| COCCc1nc2c(N)nc3ccccc3c2n1CC(C)(C)CNC(=O)Nc1ccccc1 [Example 169, N-{3-[4-amino-2-(2-methoxyethyl)-1H-imidazo[4,5-c]quinolin-1-yl]-2,2-dimethylpropyl}-N′-phenylurea] | 0.01 | 0.01 |
| Nc1nc2ccccc2c2c1ncn2CCCCNC(=O)Nc1cc(Cl)cc(Cl)c1 [Example 29] | > 30 | 10 |
| CCCCc1nc2c(N)nc3ccccc3c2n1CCCCNC(=O)Nc1ccccc1Cl [Example 86] | 0.1 | 1 |
| CCCCCNC(=O)NCCCCn1cnc2c(N)nc3ccccc3c21 [Example 30] | 3.33 | 30 |
| Nc1nc2ccccc2c2c1ncn2CCCCNC(=O)OCC1c2ccccc2-c2ccccc21 [Example 4, 9H-9-Fluorenylmethyl N-[4-(4-amino-1H-imidazo[4,5-c]quinolin-1-yl)butyl]carbamate] | > 30 | > 30 |
| COCCc1nc2c(N)nc3ccccc3c2n1CCCCNC(=O)N1CCOCC1 [Example 121] | 0.01 | 10 |
| COCCc1nc2c(N)nc3c(c2n1CCCCNC(=O)N1CCOCC1)CCCC3 [Example 135] | 0.01 | 10 |
| COCCc1nc2c(N)nc3ccccc3c2n1CCCNC(=O)Nc1ccccc1 [Example 161, N-{3-[4-amino-2-(2-methoxyethyl)-1H-imidazo[4,5-c]quinolin-1-yl]propyl}-N′-phenylurea] | 0.01 | 0.01 |
| COCCc1nc2c(N)nc3ccccc3c2n1CCCCNC(=O)Nc1c(Cl)cccc1Cl [Example 118] | 10 | 10 |
| CC(C)(C)NC(=O)NCCCCn1cnc2c(N)nc3ccccc3c21 [Example 20] | 1.11 | 30 |
| CCNC(=O)NCCCCn1c(CCOC)nc2c(N)nc3ccccc3c21 [Example 101] | 0.01 | 1 |
| COCCc1nc2c(N)nc3ccccc3c2n1CCCCNC(=O)NC1CCCCC1 [Example 105] | 0.001 | 1 |
| CCCCc1nc2c(N)nc3ccccc3c2n1CCCNC(=O)OC(C)(C)C [Example 147, tert-butyl 3-(4-amino-2-butiyl-1H-imidazo[4,5-c]quinolin-1-yl)propylcarbamate] | 0.01 | 0.12 |
| CCCCc1nc2c(N)nc3ccccc3c2n1CCNC(=O)NCc1ccccc1 [Example 55] | 1 | 1 |
| CCCNC(=O)NCCCCn1c(CCOC)nc2c(N)nc3ccccc3c21 [Example 102] | 0.001 | 1 |
| CCCCc1nc2c(N)nc3ccccc3c2n1CCCCNC(=O)NCc1ccc(OC)cc1 [Example 89] | 0.1 | 10 |
